“Also recorded” adds a separate entry of the source.
Columns and labels:
[1] = Clinical Study 1, Cohort 2: 24-hour intragastric pH on repeated co-administration with amoxicillin/clarithromycin; format: in vivo, human
Description: To identify an effect of eradicating Helicobacter pylori in the present invention, a clinical study was designed in accordance with a randomized, open-label, active-controlled, parallel and multiple-dose design. A total of 221 patients were subjected to screening for this study. Out of them, 36 patients were registered thereto and the completed clinical results were obtained from 34 patients.
Particularly, the 36 patients above were divided into three patient groups (T1, T2 and R) and the clinical study was performed accordingly. […]
The T1 group was repeatedly given 50 mg of CJ-12420 and 1000 mg of amoxicillin/500 mg of clarithromycin twice a day for seven days; the T2 group was repeatedly given 100 mg of CJ-12420 and 1000 mg of amoxicillin/500 mg of clarithromycin twice a day for seven days; and the R group was repeatedly given 40 mg of pantoprazole and 1000 mg of amoxicillin/500 mg of clarithromycin twice a day for seven days. An intragastric pH was measured from all the subjects on Day 1 for 24 hours, and the intragastric pH was also measured for 24 hours on Day 1 and Day 7 of repeated administration. Also, a negative conversion rate was calculated upon a follow-up visit paid by subjects who were identified to be H. pylori positive on the UBT test during screening, and stability evaluation was performed according to a predetermined schedule. […]

[2] = Clinical Study 1, Cohort 1: pharmacokinetic interaction of multiple-dose tegoprazan and amoxicillin/clarithromycin; format: in vivo, human; conditions: for change of AUC on administering the three formulations in combination (in words) / change of Cmax on administering the three formulations in combination (in words): tegoprazan + amoxicillin + clarithromycin in combination
Protocol: To evaluate pharmacokinetic interaction of multiple-dose administration of single and combination of tegoprazan and amoxicillin/clarithromycin, a clinical study was designed in accordance with a randomized, open-label, and multiple-dose design.
A total of 24 subjects who had been determined eligible to participate in the study were randomly assigned in a 1:1 ratio to each one of the two groups. Each randomly-assigned group was administered with investigational medical products as arranged during each intervention period and underwent a clinical study as designed. In consideration of the half-life of each product, a 14-day wash-out period was given between the intervention periods.
A total of 24 subjects were divided into group 1 and group 2. During the first intervention period, subjects of group 1 (12 person) were repeatedly administered with 100 mg of tegoprazan twice a day for four days and administered once a day on the fifth day on which a pharmacokinetic clinical study was conducted. During the second intervention period after a 14-day wash-out period, they were repeatedly administered with 1000 mg of amoxicillin and 500 mg of clarithromycin twice a day for four days and administered once a day on the fifth day. During the third intervention period after a 14-day wash-out period, they were repeatedly administered with 100 mg of tegoprazan, 1000 mg of amoxicillin, and 500 mg of clarithromycin twice a day for six days and administered once a day on the seventh day. Following the last dose of each intervention period, pharmacokinetic blood samples were collected for 17 times over 72 hours in the first period, 14 times over 48 hours in the second period, and 19 times over 120 hours in the third period.
Drugs were administered to subjects of group 2 (12 person) in the reverse order to the way the study was conducted on group 1 in the first and second intervention periods and in the same order in the third intervention period. Pharmacokinetic blood samples were collected in the same manner as group 1.
The average plasma concentrations of tegoprazan, clarithromycin, and amoxicillin were measured and time-based plasma concentration and time-based drug concentration patterns were observed when tegoprazan was repeatedly administered alone, amoxicillin/clarithromycin were repeatedly administered and tegoprazan, amoxicillin, and clarithromycin were repeatedly administered in combination.
Pharmacokinetics of tegoprazan, amoxicillin, and clarithromycin were evaluated. Descriptive statistics of pharmacokinetic evaluation parameters were presented. Point estimates for geometric mean ratio between each group and 90% confidence interval were calculated from the log-converted primary pharmacokinetic evaluation parameters by using a linear mixed effect model.

[3] = tegoprazan 100 mg twice a day, with amoxicillin 1000 mg/clarithromycin 500 mg versus alone

Row | increase of AUC when administered in combination with amoxicillin/clarithromycin [2, 3] | increase of Cmax when administered in combination with amoxicillin/clarithromycin [2, 3] | Structure (SMILES) | speed of intragastric pH increase (to 6 or more) right after the administration [1] | change of AUC on administering the three formulations in combination (in words) [2] | change of Cmax on administering the three formulations in combination (in words) [2]
1 | 2.70 times | 2.24 times | Cc1nc2c(OC3CCOc4cc(F)cc(F)c43)cc(C(=O)N(C)C)cc2[nH]1 (stereo not shown) [Tegoprazan, 4-[(5,7-difluoro-3,4-dihydro-2H-chromene-4-yl)oxy]-N,N,2-trimethyl-1H-benzimidazole-6-carboxamide] | two hours or less | increased | increased
2 |  |  | CC[C@H]1OC(=O)[C@H](C)[C@@H](O[C@H]2C[C@@](C)(OC)[C@@H](O)[C@H](C)O2)[C@H](C)[C@@H](O[C@@H]2O[C@H](C)C[C@H](N(C)C)[C@H]2O)[C@](C)(OC)C[C@@H](C)C(=O)[C@H](C)[C@@H](O)[C@]1(C)O [clarithromycin, (3R,4S,5S,6R,7R,9R,11R,12R,13S,14R)-6-[(2S,3R,4S,6R)-4-(dimethylamino)-3-hydroxy-6-methyloxane-2-yl]oxy-14-ethyl-12,13-dihydroxy-4-[(2R,4R,5S,6S)-5-hydroxy-4-methoxy-4,6-dimethyloxane-2-yl]oxy-7-methoxy-3,5,7,9,11,13-hexamethyl-oxacyclotetradecane-2,10-dione, reference compound] |  | tendency to increase; also recorded: increased | tendency to increase; also recorded: increased

From patent US20210196685A1, “COMPOSITION FOR ERADICATING HELICOBACTER PYLORI” (HK INNO.N CORPORATION, priority 2018, published 2021)
